Read-outs that look alike come from different tables or passages of the source.
Experiments:
[1] = male, human, in vivo
Method: (§1) An open-label, inpatient, multiple-dose tigecycline, single-dose [^14C]tigecycline metabolic disposition and mass balance study was performed in six healthy male volunteers. The clinical protocol called for twelve subjects. Of these twelve, six received the radioactive dose (subjects 1, 4, 5, 6, 7, and 8 with subject 8 later dropping out of the study.) Eligible subjects were selected based on inclusion/exclusion criteria, medical history, physical examination and additional procedures outlined in the study protocol. Each subject received a 100 mg loading dose on the morning of Day 1, followed by a 50 mg maintenance dose every 12 hours for an additional 5 doses. On the morning of study Day 4, six subjects received a single 50 mg dose of [^14C]tigecycline (50 μCi). Each tigecycline dose was administered via a 30-minute intravenous infusion.
(§2) Serum samples were collected for metabolite profiling prior to tigecycline dosing and 1, 4, 8, 24 and 48 hours following the [^14C]-labeled dose. For metabolite profiling, urine samples were collected at 0-4, 4-8, 8-24 and 24-48 hours and fecal samples were collected up to 48 hours following the [^14C]-labeled dose. Serum and urine samples, and fecal homogenates were shipped on dry ice to the Biotransformation Division of Drug Safety and Metabolism, Wyeth Research, Collegeville, Pa. The details of the sample collection and sample storage are described in the mass balance portion of the study. The 24-48 hour urine and fecal samples for subject #6 were incomplete since the subject withdrew from the study. While samples from this subject were used for metabolite profiling, the samples were not included in the mass balance calculations.
Individual fecal sample homogenates, prepared from each fecal sample collected up to 48 hours following the [^14C]-labeled tigecycline dose, that contained greater than 8000 dpm/g were analyzed for metabolite profiles. The preparation of the fecal sample homogenates is described in detail in the mass balance portion of the study. Briefly, fecal samples were homogenized with 3 to 4 volumes of ice-cold water by weight at ABC Laboratories (Columbia, Mo.) and shipped frozen to the Biotransformation Division of Drug Safety and Metabolism, Wyeth Research, Collegeville, Pa. For the extraction of radioactivity, fecal homogenates were thawed on ice and aliquots (approximately 1 g) transferred to 15 mL tubes. Three volumes of acetone were added and the samples mixed for 1 minute using a multi-tube vortex mixer. Samples were centrifuged for 15 minutes at 2500 rpm and 4° C. in a Sorvall Super T21 centrifuge. The supernatant was transferred to a fresh tube and the pellet re-suspended with 1 mL of water and 80 μL of 0.5 M EDTA, and re-extracted as described above. The pellet was re-extracted in this manner a total of three times and the supernatants pooled. The supernatant was evaporated to dryness under a stream of nitrogen using a Turbovap Model LV. The residue was re-suspended in 500 μL of water and centrifuged for 10 minutes at 14,000 rpm and room temperature using a Model 5415C Eppendorf centrifuge. The supernatant was transferred to an HPLC vial, assayed for radioactivity and for metabolite profiles using HPLC with radioactivity detection. Selected samples were also analyzed by LC/MS.
(§3) HPLC analyses were performed using a Waters 2695 Alliance Separation Module (Waters Corp., Milford, Mass.), a Waters Model 2487 dual wavelength UV absorbance detector, set to monitor 350 nm, and was in-line with a Gilson 215 liquid handler (Gilson, Middleton, Wis.) equipped to collect fractions at 20 second intervals.

[2] = in vivo
Method: as §1, §2
Individual serum samples, collected 1, 4 and 8 hours following the [^14C]-labeled tigecycline dose, were analyzed for metabolite profiles. […] In order to minimize the sample volume, each serum sample was divided into two samples of equal volume (approximately 9 Ml each) and extracted and analyzed separately. […] The residue was reconstituted in 300 μL of acetonitrile/water (1:9), centrifuged for 10 minutes at 14,000 rpm and room temperature using a Model 5415C Eppendorf centrifuge (Brinkmann Instruments, Westbury, N.Y.) and assayed for radioactivity and by HPLC. Selected samples were also analyzed by LC/MS.
as §3, with “intervals. Fractions were collected into 96-well deep well Luma plates and analyzed using TopCount NXT. […]” for “intervals.”

percent of the fecal radioactivity [1]	Relative Distribution (%) of radioactivity in extracted fecal homogenate ([1]; 24.2 h)	Relative Distribution (%) of radioactivity in extracted fecal homogenate ([1]; 24.6 h)	Relative Distribution (%) of radioactivity in extracted fecal homogenate ([1]; 25.2 h)	Relative Distribution (%) of radioactivity in extracted fecal homogenate ([1]; 29.8 h)	Relative Distribution (%) of radioactivity in extracted fecal homogenate ([1]; 30 h)	Relative Distribution (%) of radioactivity in extracted fecal homogenate ([1]; 32 h)	Relative Distribution (%) of radioactivity in extracted fecal homogenate ([1]; 34.2 h)	Relative Distribution (%) of radioactivity in extracted fecal homogenate ([1]; 41.8 h)	percent of the radioactivity in serum ([2]; male, human)	Compound	Estimated Concentrations in fecal homogenate ([1]; 24.2 h)	Estimated Concentrations in fecal homogenate ([1]; 24.6 h)	Estimated Concentrations in fecal homogenate ([1]; 25.2 h)	Estimated Concentrations in fecal homogenate ([1]; 29.8 h)	Estimated Concentrations in fecal homogenate ([1]; 30 h)	Estimated Concentrations in fecal homogenate ([1]; 32 h)	Estimated Concentrations in fecal homogenate ([1]; 34.2 h)	Estimated Concentrations in fecal homogenate ([1]; 41.8 h)	further results
10-26%	23.5%	9.8%	10.4%	21.6%	13.3%	10.4%	26.3%	21.3%		CN(C)c1cc(NC(=O)CNC(C)(C)C)c(O)c2c1C[C@H]1C[C@H]3C(N(C)C)C(O[C@@H]4O[C@H](C(=O)O)[C@@H](O)[C@H](O)[C@H]4O)=C(C(N)=O)C(=O)[C@@]3(O)C(O)=C1C2=O (stereo in doubt) [Metabolite M7, tigecycline glucuronide]	0.51 mg-Tigecycline Equivalents/Collection	0.40 mg-Tigecycline Equivalents/Collection	1.1 mg-Tigecycline Equivalents/Collection	2.6 mg-Tigecycline Equivalents/Collection	1.2 mg-Tigecycline Equivalents/Collection	0.49 mg-Tigecycline Equivalents/Collection	1.1 mg-Tigecycline Equivalents/Collection	1.8 mg-Tigecycline Equivalents/Collection	
4-14%	13.9%	6.2%	7.5%	4.1%	5.9%	4.2%	3.9%	6.7%	10-20%	CC(C)(C)NCC(=O)O [Metabolite M3a, t-butylaminoacetic acid]	(0.30) mg-Tigecycline Equivalents/Collection	(0.25) mg-Tigecycline Equivalents/Collection	(0.81) mg-Tigecycline Equivalents/Collection	(0.49) mg-Tigecycline Equivalents/Collection	(0.55) mg-Tigecycline Equivalents/Collection	(0.20) mg-Tigecycline Equivalents/Collection	(0.17) mg-Tigecycline Equivalents/Collection	(0.56) mg-Tigecycline Equivalents/Collection	
up to 9%	5.8%		4.1%	6.8%	5.6%	3.0%	7.5%	8.9%	less than 4%	CN(C)c1cc(NC(=O)CNC(C)(C)C)c(O)c2c1C[C@H]1C[C@H]3[C@@H](N(C)C)C(O[C@@H]4O[C@H](C(=O)O)[C@@H](O)[C@H](O)[C@H]4O)=C(C(N)=O)C(=O)[C@@]3(O)C(O)=C1C2=O [Metabolite M6, epimer of tigecycline glucuronide]	0.13 mg-Tigecycline Equivalents/Collection		0.44 mg-Tigecycline Equivalents/Collection	0.82 mg-Tigecycline Equivalents/Collection	0.52 mg-Tigecycline Equivalents/Collection	0.14 mg-Tigecycline Equivalents/Collection	0.32 mg-Tigecycline Equivalents/Collection	0.75 mg-Tigecycline Equivalents/Collection	detection in serum samples [2]: approximately half the serum samples
28-51%	44.9%	47.7%	39.9%	39.1%	48.3%	50.7%	32.8%	28.1%		CN(C)c1cc(NC(=O)CNC(C)(C)C)c(O)c2c1C[C@H]1C[C@H]3[C@H](N(C)C)C(O)=C(C(N)=O)C(=O)[C@@]3(O)C(O)=C1C2=O [Tigecycline]	0.97 mg-Tigecycline Equivalents/Collection	2.0 mg-Tigecycline Equivalents/Collection	4.3 mg-Tigecycline Equivalents/Collection	4.7 mg-Tigecycline Equivalents/Collection	4.5 mg-Tigecycline Equivalents/Collection	2.4 mg-Tigecycline Equivalents/Collection	1.4 mg-Tigecycline Equivalents/Collection	2.4 mg-Tigecycline Equivalents/Collection	percent of fecal radioactivity after correcting for the epimer formed during the extraction process [1]: 39-66%; percent of serum radioactivity after correcting for the epimer formed during the extraction ([2]; male, human): 59-80%

From patent publication US7534766B2, “Glucuronide metabolites and epimers thereof of tigecycline” (Wyeth, priority 2004, dated 2009)
